Data on 1 compound can be found in ChEMBL document CHEMBL4390666, “Chemical manipulations on the 1,4-dioxane ring of 5-HT1A receptor agonists lead to antagonists endowed with antitumor activity in prostate cancer cells” (Eur J Med Chem, 2019).

Activity calls are given as the source filed them. The calls are words filed in the database; no cut-off is given here. Where only a bound is given, the exact number is not on record here.

Data set [1] has as its system DU-145. Description: Inhibition of 5-HT-stimulated human DU145 cells proliferation at 5 to 10 uM incubated for 48 hrs by SRB assay. The data set is classed as functional, cell-based. (In general: The SRB assay estimates cell density from bound dye.)
Data set [2] relates to PC-3. Kind of data set: Inhibition of 5-HT-stimulated human PC3 cells proliferation at 5 to 10 uM incubated for 48 hrs by SRB assay. The data set is classed as functional, cell-based.
The target of the next data set is D(2) dopamine receptor (Homo sapiens, UniProt P14416). Kind of data set: Displacement of [3H]N-methylspiperone from human dopamine D2 receptor expressed in HEK293 cell membranes incubated for 1 hr by liquid scintillation counting. In general terms: Loss of bound radioactivity is the signal in a displacement assay; it reports binding, not function.
A further data set concerns the target D(3) dopamine receptor (Homo sapiens, UniProt P35462). Kind of data set: Displacement of [3H]N-methylspiperone from human dopamine D3 receptor expressed in HEK293 cell membranes incubated for 1 hr by liquid scintillation counting.
The next data set addresses T1, D(4) dopamine receptor (Homo sapiens, UniProt P21917).
T1 sequence (P21917 whole entry): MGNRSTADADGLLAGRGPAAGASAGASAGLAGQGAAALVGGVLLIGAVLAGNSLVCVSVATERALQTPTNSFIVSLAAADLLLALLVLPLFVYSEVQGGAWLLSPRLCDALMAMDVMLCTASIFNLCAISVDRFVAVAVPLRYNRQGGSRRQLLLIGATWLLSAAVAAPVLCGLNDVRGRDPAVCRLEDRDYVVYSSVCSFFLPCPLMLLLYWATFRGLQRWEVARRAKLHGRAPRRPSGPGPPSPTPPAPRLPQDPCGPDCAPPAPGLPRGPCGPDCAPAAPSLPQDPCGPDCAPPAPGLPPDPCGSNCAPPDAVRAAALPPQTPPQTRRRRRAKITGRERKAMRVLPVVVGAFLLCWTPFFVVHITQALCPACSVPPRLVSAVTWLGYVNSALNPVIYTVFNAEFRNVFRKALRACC
Description: Displacement of [3H]N-methylspiperone from human dopamine D4 receptor expressed in HEK293 cell membranes incubated for 1 hr by liquid scintillation counting.

Data set [3] has as its system PC-3. Description: Growth inhibition of human PC3 cells incubated for 48 hrs by SRB assay. The data set is classed as functional. Conditions: PC-3, 48 h.
The subject of data set [4] is DU-145. Description: Growth inhibition of human DU145 cells incubated for 48 hrs by SRB assay. The data set is classed as functional. Particulars: DU-145, 48 h.
The nature of data set [5]: (§1) Growth inhibition of human fibroblast cells incubated for 48 hrs by SRB assay. The data set is classed as cell-based. Particulars: human fibroblast cells.
The subject of the next data set is Fibroblast. The data set is described as §1. Type of data set: cell-based. Particulars: fibroblast, 48 h.
For data set [6], the system named is PC-3. Kind of data set: Inhibition of norepinephrine-stimulated human PC3 cells proliferation at 5 to 10 uM incubated for 48 hrs by SRB assay. Type of data set: functional, cell-based.
In data set [7] the test system is DU-145. Description: Inhibition of norepinephrine-stimulated human DU145 cells proliferation at 5 to 10 uM incubated for 48 hrs by SRB assay. Type of data set: functional, cell-based.
The target in data set [8] is T2, 5-hydroxytryptamine receptor 1A (Homo sapiens) (UniProt P08908).
T2 sequence (whole entry): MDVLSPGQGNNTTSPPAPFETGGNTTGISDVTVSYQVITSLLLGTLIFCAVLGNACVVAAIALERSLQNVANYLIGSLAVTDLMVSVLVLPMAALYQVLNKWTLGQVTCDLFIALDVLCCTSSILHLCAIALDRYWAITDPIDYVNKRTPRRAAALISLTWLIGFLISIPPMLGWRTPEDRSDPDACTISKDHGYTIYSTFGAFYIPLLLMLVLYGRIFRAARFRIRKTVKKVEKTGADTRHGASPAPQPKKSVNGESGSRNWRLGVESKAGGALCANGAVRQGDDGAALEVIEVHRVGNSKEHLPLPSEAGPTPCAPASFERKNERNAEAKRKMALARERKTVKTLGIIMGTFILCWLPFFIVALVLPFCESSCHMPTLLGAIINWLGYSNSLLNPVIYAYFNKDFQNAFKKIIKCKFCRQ
Particulars: HeLa.
Description: Antagonist activity at cloned human 5-HT1A receptor transfected in human HeLa cell membranes preincubated for 20 mins followed by [35S]GTPgammaS addition and measured after 30 mins by liquid scintillation counting

In data set [9] the target is T3, Alpha-1A adrenergic receptor (Homo sapiens, UniProt P35348).
T3 sequence (P35348 whole entry): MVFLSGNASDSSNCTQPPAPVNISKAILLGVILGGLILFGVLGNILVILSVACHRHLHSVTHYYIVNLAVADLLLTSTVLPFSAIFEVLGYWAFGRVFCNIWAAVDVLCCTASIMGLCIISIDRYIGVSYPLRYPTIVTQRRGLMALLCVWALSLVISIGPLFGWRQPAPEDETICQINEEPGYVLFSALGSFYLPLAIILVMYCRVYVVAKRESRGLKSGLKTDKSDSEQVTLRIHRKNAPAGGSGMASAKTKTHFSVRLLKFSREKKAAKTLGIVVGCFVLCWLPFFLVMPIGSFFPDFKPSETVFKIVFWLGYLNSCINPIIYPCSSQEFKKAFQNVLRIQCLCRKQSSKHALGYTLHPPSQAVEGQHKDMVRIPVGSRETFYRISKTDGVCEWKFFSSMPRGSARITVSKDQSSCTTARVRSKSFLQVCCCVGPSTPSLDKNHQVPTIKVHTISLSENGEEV
Kind of data set: biochemical.
Description: Displacement of [3H]Prazosin from human recombinant alpha 1A adrenergic receptor expressed in CHO cells incubated for 30 mins by radioligand competition binding assay

Data set [10] deals with T4, Alpha-1B adrenergic receptor (Homo sapiens, UniProt P35368).
T4 sequence (P35368 whole entry): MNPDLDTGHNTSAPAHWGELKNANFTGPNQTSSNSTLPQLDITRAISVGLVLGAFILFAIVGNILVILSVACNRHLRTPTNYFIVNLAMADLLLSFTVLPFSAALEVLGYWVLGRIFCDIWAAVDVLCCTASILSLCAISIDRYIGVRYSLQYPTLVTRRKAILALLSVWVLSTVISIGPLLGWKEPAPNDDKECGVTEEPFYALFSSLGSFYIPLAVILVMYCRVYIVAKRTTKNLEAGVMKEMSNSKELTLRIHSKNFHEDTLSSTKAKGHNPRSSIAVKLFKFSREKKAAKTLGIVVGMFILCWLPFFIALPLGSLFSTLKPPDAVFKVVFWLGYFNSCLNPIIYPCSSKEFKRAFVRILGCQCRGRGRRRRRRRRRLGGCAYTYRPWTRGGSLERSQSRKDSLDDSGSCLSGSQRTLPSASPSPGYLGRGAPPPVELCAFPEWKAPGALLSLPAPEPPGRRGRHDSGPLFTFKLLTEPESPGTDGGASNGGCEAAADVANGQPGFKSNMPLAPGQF
Kind of data set: biochemical.
Description: Displacement of [3H]Prazosin from human recombinant alpha 1B adrenergic receptor expressed in CHO cells incubated for 30 mins by radioligand competition binding assay

Data set [11] has as its target T5, Alpha-1D adrenergic receptor (Homo sapiens, UniProt P25100).
T5 sequence (P25100 whole entry): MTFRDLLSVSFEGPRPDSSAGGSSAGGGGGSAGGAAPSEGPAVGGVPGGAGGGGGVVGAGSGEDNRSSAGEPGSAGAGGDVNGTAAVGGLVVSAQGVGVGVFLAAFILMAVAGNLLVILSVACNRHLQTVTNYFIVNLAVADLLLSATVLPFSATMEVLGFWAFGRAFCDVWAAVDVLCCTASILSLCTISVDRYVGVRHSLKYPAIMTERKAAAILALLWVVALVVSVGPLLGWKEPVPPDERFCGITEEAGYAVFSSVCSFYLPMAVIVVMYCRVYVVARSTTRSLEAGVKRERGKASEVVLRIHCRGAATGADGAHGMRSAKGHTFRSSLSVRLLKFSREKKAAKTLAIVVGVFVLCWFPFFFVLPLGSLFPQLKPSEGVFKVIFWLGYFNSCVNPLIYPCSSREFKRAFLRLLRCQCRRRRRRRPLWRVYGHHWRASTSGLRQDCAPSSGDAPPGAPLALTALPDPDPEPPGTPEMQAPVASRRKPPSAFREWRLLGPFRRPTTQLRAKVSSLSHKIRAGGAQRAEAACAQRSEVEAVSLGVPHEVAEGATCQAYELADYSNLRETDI
Kind of data set: biochemical.
Description: Displacement of [3H]Prazosin from human recombinant alpha 1D adrenergic receptor expressed in CHO cells incubated for 30 mins by radioligand competition binding assay

The target of data set [12] is T6, 5-hydroxytryptamine receptor 1A (Homo sapiens, UniProt P08908).
T6 sequence (P08908 whole entry): T2 sequence (whole entry)
Kind of data set: biochemical.

Where [13] appears, read: read-out: LC50 (the source's name).

D(2) dopamine receptor, sequence (P14416 whole entry): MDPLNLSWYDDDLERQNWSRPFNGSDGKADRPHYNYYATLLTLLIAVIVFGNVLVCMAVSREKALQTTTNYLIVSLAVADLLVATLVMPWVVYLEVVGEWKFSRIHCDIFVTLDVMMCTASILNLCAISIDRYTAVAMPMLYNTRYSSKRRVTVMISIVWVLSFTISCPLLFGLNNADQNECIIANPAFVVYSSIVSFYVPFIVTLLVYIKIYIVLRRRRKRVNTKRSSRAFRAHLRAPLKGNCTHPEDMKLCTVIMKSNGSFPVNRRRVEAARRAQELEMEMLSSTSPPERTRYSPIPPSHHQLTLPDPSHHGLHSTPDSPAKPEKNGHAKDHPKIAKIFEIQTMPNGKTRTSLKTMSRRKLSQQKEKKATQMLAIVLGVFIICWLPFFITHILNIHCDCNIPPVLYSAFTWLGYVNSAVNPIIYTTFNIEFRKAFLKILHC
D(3) dopamine receptor, sequence (P35462 whole entry): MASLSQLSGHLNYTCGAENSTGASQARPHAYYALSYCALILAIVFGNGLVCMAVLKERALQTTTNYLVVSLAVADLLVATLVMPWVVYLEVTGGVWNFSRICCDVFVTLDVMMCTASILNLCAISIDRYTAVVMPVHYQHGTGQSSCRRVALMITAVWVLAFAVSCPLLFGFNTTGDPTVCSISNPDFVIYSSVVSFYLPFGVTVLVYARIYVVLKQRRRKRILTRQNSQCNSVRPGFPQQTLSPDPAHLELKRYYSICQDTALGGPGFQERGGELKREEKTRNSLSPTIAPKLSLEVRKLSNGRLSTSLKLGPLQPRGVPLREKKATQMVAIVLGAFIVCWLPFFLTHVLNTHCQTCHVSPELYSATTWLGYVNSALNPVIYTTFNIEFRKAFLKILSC

As a reminder, the Ki is the equilibrium dissociation constant of an inhibitor or competing ligand from its target. Broadly, the GI50 is the concentration giving 50% growth inhibition. High values mean lower sensitivity of the cells, low ones greater sensitivity of the cells. The TGI is the concentration at which net growth stops. A low value points to greater sensitivity of the cells. Usually LC50 stands for the concentration lethal to half of the exposed cells or organisms. Lower therefore signals greater toxicity. One may read the pKb as the negative decadic logarithm of the Kb, by convention in mol/L. Low values mean a high Kb, high ones a low Kb. Turning to `COc1ccccc1OCCNCC1OCCOC1(c1ccccc1)c1ccccc1` (stereo unspecified), the inhibition result in the data set with DU-145 [1], in the data set with PC-3 [2], in the data set with PC-3 [6] and in the data set with DU-145 [7] was “Active” each time. Besides, the Ki was 0.324 µM on D(2) dopamine receptor; 0.537 µM at D(3) dopamine receptor; 0.275 µM at D(4) dopamine receptor; > 1 µM in data set [9]; 0.0676 µM in data set [10]; 0.00741 µM in data set [11]. In addition, in [12], the affinity, expressed as Ki, was 0.00398 µM. Further, the GI50 in the data set with PC-3 [3] was found to be 13 µM; in the data set on DU-145 [4], 18 µM. Moreover, the figures for the TGI in the data set with PC-3 [3], in the data set with DU-145 [4] and in the data set with Fibroblast were 29 µM, 32 µM and 50.2 µM, respectively. Also, the CC50 in the data set on PC-3 [3] (setting [13]) stood at 68 µM; with DU-145 [4] (setting [13]) it was 55 µM. In addition, the GI50 at 48 h in [5] turned out to be 30.5 µM. Also, the LC50 with Fibroblast turned out to be 99.6 µM. The pKb in data set [8] is 8.5.
